# Measurements from ChEMBL document CHEMBL4184137, “Lysine Deacetylase Inhibitors in Parasites: Past, Present, and Future Perspectives” (J Med Chem, 2017).
# pEC50, pIC50: −log10 of the molar value.
# Key:
# [1] = system: Leishmania infantum; experiment: Antileishmanial activity against amastigote stage of Leishmania infantum infected in PMA-differentiated human THP-1 cells after 3 days by luciferase assay; format: functional, organism-based; details: THP-1, 72 h
# [2] = molecular target: T1, Putative silent information regulator 2 (Leishmania infantum, UniProt A0A6L0XH39); experiment: Inhibition of N-terminal His6-tagged recombinant Leishmania infantum SIR2RP1 expressed in Escherichia coli in presence of NAD+ by fluorimetric method
# T1 sequence (A0A6L0XH39 whole entry): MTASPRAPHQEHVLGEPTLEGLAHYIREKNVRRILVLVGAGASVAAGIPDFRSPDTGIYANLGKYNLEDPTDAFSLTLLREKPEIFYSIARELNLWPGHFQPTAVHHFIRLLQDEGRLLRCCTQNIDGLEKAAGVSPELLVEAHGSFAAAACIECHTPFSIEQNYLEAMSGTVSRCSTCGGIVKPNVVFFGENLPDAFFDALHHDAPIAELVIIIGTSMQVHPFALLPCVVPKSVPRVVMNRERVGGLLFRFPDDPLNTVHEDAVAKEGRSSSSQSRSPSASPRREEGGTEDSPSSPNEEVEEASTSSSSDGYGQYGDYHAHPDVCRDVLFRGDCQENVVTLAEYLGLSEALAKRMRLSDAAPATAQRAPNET
# [3] = system: Plasmodium falciparum; experiment: Antimalarial activity against Plasmodium falciparum infected in human erythrocytes preincubated for 48 hrs followed by [3H]-hypoxanthine addition measured after 24 hrs by scintillation counting assay; format: functional, organism-based
# [4] = system: Plasmodium falciparum; experiment: Gametocytocidal activity against transgenic GFP-fused Plasmodium falciparum NF54 […] gametocytes after 24 hrs by MitoTracker Red CM-H2XRos late-stage gametocyte imaging-based viability assay; format: functional, organism-based; details: NF54, 24 h
# [5] = system: Plasmodium falciparum; experiment: Antimalarial activity against Plasmodium falciparum infected in type O-positive erythrocytes by [3H]-hypoxanthine incorporation assay; format: functional, organism-based
# [6] = system: NFF; experiment: Cytotoxicity against human NFF cells after 72 hrs by SRB assay; format: cell-based
# [7] = Selectivity index, ratio of IC50 for human NFF cells to IC50 for transgenic GFP-fused Plasmodium falciparum NF54 […] gametocyte; format: toxicity; details: read-out: Ratio IC50
# [8] = Selectivity index, ratio of IC50 for human NFF cells to IC50 for Plasmodium falciparum; format: toxicity; details: read-out: Ratio IC50
# [9] = Inhibition of Plasmodium falciparum Sir2A
# [10] = system: Plasmodium falciparum; experiment: Antiplasmodial activity against Plasmodium falciparum 3D7 assessed as growth inhibition after 24 hrs by measuring incorporation of [3H]-hypoxanthine by liquid scintillation counting method; format: functional, organism-based
# [11] = system: Trypanosoma brucei brucei; experiment: Antitrypanosomal activity against Trypanosoma brucei brucei measured after 22 hrs by fluorescence-based Alamar blue viability assay; format: functional, organism-based
# [12] = system: HEK293; experiment: Cytotoxicity against HEK293 cells after 48 hrs by resazurin assay; format: cell-based; details: Homo sapiens, HEK293, 48 h
# [13] = molecular target: T2, Histone deacetylase (Plasmodium falciparum) (UniProt Q9XYC7); experiment: Inhibition of recombinant HDAC1 in recombinant Plasmodium falciparum at 1 uM using Ac-RGK(Ac)-AMC fluorogenic peptide as substrate preincubated for 1 hr followed by substrate addition measured after 10 min by fluorescence assay
# T2 sequence (whole entry): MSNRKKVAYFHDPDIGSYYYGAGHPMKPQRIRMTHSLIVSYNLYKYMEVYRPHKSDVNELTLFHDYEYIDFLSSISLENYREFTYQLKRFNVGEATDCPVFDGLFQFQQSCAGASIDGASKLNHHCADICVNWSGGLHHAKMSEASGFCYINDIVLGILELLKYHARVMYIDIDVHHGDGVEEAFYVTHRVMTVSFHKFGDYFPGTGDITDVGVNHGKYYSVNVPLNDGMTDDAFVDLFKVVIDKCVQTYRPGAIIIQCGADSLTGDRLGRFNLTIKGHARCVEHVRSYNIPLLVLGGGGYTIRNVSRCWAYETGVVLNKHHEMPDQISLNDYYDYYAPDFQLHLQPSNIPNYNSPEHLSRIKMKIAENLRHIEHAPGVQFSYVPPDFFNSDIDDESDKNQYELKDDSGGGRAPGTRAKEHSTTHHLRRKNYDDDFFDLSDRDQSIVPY
# [14] = molecular target: T3, Histone deacetylase (Plasmodium falciparum, UniProt Q9XYC7); experiment: Inhibition of recombinant Plasmodium falciparum HDAC1 using HDAC substrate-3 after 30 mins by fluorescence assay
# T3 sequence (Q9XYC7 whole entry): T2 sequence (whole entry)
# [15] = system: Plasmodium falciparum; experiment: Antimalarial activity against Plasmodium falciparum using Malstat reagent by parasite lactate dehydrogenase assay; format: functional, organism-based
# [16] = Selectivity index, ratio of IC50 for African green monkey Vero cells to IC50 for Plasmodium falciparum W2; format: toxicity; details: read-out: Ratio IC50
# [17] = Selectivity index, ratio of IC50 for African green monkey Vero cells to IC50 for Plasmodium falciparum D6; format: toxicity; details: read-out: Ratio IC50
# [18] = system: Leishmania infantum; experiment: Antileishmanial activity against amastigote stage of Leishmania infantum MHOM/MA671TMAP263 expressing luciferase after 72 hrs by luciferase assay; format: functional, organism-based; details: MHOM/MA671TMAP263, 72 h
# [19] = system: Trypanosoma cruzi; experiment: Antitrypanosomal activity against epimastigotes of Trypanosoma cruzi […] by Alamar Blue assay; format: functional, organism-based
# [20] = system: Toxoplasma gondii; experiment: Antiparasitic activity against tachyzoite stage of Toxoplasma gondii; format: functional, organism-based
# [21] = system: Plasmodium falciparum; experiment: Antimalarial activity against Plasmodium falciparum; format: functional, organism-based
# [22] = system: Schistosoma mansoni; experiment: Antiparasitic activity against Schistosoma mansoni assessed as pairing at 20 uM after 6 days relative to control; format: functional
# [23] = system: Schistosoma mansoni; experiment: Antiparasitic activity against Schistosoma mansoni assessed as cumulative egg reduction at 20 uM; format: functional; parameters: scale not given: the % may be the effect or the level left
# [24] = system: Schistosoma mansoni; experiment: Antiparasitic activity against Schistosoma mansoni assessed cell viability at 20 uM after 5 days; format: functional
# [25] = system: Trypanosoma brucei; experiment: Inhibition of recombinant Trypanosoma brucei HDAC3 at 5 uM after 30 mins
# [26] = system: Trypanosoma brucei; experiment: Inhibition of recombinant Trypanosoma brucei HDAC1 at 5 uM after 30 mins
compound,measurement,setting,value
O=C1c2cccc3cccc(c23)C(=O)N1CCNCCCNCCCNCCN1C(=O)c2cccc3cccc(c23)C1=O,pIC50,[1],5.00 to 6.00
same,pIC50,[2],4.26 to 5.24
O=C(/C=C/c1ccc(C(=O)NO)cc1)NO,pIC50,[3],5.96 to 6.05
O=C1c2cccc3cccc(c23)C(=O)N1CCNCCCNCCCCNCCCNCCN1C(=O)c2cccc3cccc(c23)C1=O,pIC50,[1],5.00 to 6.00
same,pIC50,[2],4.26 to 5.24
O=C(CCCCCONC(=O)Nc1cccc2ccccc12)NO,pIC50,[4],5.65 to 5.67
same,pIC50,[5],6.49 to 6.60
same,pIC50,[6],4.71
same,selectivity ratio,[7],9
same,selectivity ratio,[8],36 to 78
O=C1c2cccc3cccc(c23)C(=O)N1CCNCCCCCCCCCCCCNCCN1C(=O)c2cccc3cccc(c23)C1=O,pIC50,[1],5.00 to 6.00
same,pIC50,[2],4.26 to 5.24
O=C1CCc2c(ccc3ccccc23)O1 [SPLITOMICIN],pIC50,[9],< 3.40
same,pIC50,[10],< 5.00
O=C1c2cccc3cccc(c23)C(=O)N1CCNCCCCCCCCCCNCCN1C(=O)c2cccc3cccc(c23)C1=O,pIC50,[1],5.00 to 6.00
same,pIC50,[2],4.26 to 5.24
O=C1c2cccc3cccc(c23)C(=O)N1CCNCCCCNCCCNCCN1C(=O)c2cccc3cccc(c23)C1=O,pIC50,[1],5.00 to 6.00
same,pIC50,[2],4.26 to 5.24
O=C1c2cccc3cccc(c23)C(=O)N1CCNCCCCCCCCCNCCN1C(=O)c2cccc3cccc(c23)C1=O,pIC50,[1],5.00 to 6.00
same,pIC50,[2],4.26 to 5.24
Cc1[nH]c2ccccc2c1CCNCc1ccc(/C=C/C(=O)NO)cc1 [PANOBINOSTAT],pIC50,[3],7.52 to 8.00
same,pIC50,[11],5.77
same,pIC50,[12],6.74 to 7.15
same,pIC50,[6],6.74 to 7.15
same,inhibition,[13],100%
CC[C@H]1OC(=O)[C@H](C)[C@@H](O[C@H]2C[C@@](C)(OC)[C@@H](O)[C@H](C)O2)[C@H](C)[C@@H](O[C@@H]2O[C@H](C)C[C@H](N(C)Cc3ccc(-c4cn(CCCCCCC(=O)NO)nn4)cc3)[C@H]2O)[C@](C)(O)C[C@@H](C)CN(C)[C@H](C)[C@@H](O)[C@]1(C)O,pIC50,[14],7.54
same,pIC50,[15],6.65 to 7.03
same,selectivity ratio,[16],> 47.6
same,selectivity ratio,[17],> 20.7
O=C1c2cccc3cccc(c23)C(=O)N1CCNCCNCCNCCN1C(=O)c2cccc3cccc(c23)C1=O,pIC50,[1],5.00 to 6.00
same,pIC50,[2],4.26 to 5.24
NC(=O)c1cccnc1 [NIACINAMIDE],pIC50,[9],4.29
same,pIC50,[2],4.40
same,pIC50,[18],1.86 to 2.26
same,pIC50,[10],2.00
same,pEC50,[19],1.59
O=C(CCCCCN1C(=O)c2cccc3cccc(c23)C1=O)NO,pIC50,[20],7.41
O=C1c2cccc3cccc(c23)C(=O)N1CCNCCCCCNCCN1C(=O)c2cccc3cccc(c23)C1=O,pIC50,[1],5.00 to 6.00
same,pIC50,[2],4.26 to 5.24
O=C(/C=C/c1cccc(S(=O)(=O)Nc2ccccc2)c1)NO [BELINOSTAT],pIC50,[3],6.89 to 7.22
same,pIC50,[11],5.59
same,pIC50,[12],5.62 to 5.85
same,pIC50,[6],5.62 to 5.85
same,inhibition,[13],78.5%
CCCC(CCC)C(=O)O [VALPROIC ACID],pIC50,[21],< 4.00
O=C1NC(=S)NC(=O)C1=Cc1cc2ccccc2[nH]1,Activity,[22],100%
same,Activity,[23],65%
same,Activity,[24],100%
Cc1ccc(C(=O)Nc2ccc(S(=O)(=O)O)c3cc(S(=O)(=O)O)cc(S(=O)(=O)O)c23)cc1NC(=O)c1cccc(NC(=O)Nc2cccc(C(=O)Nc3cc(C(=O)Nc4ccc(S(=O)(=O)O)c5cc(S(=O)(=O)O)cc(S(=O)(=O)O)c45)ccc3C)c2)c1 [SURAMIN],pIC50,[2],5.15
CC(/C=C/C(=O)NO)=C\[C@@H](C)C(=O)c1ccc(N(C)C)cc1 [TRICHOSTATIN],pIC50,[11],5.15
same,inhibition,[25],> 50%
same,inhibition,[26],> 50%
same,pIC50,[20],7.39
O=C1c2cccc3cccc(c23)C(=O)N1CCNCCCCCCCCNCCN1C(=O)c2cccc3cccc(c23)C1=O,pIC50,[1],5.00 to 6.00
same,pIC50,[2],4.26 to 5.24
O=C(CCCCCCC(=O)NO)NO [SUBEROHYDROXAMIC ACID],pIC50,[3],5.64 to 6.10
same,pIC50,[20],6.67
O=C1c2cccc3cccc(c23)C(=O)N1CCNCCCCCCNCCN1C(=O)c2cccc3cccc(c23)C1=O,pIC50,[1],5.00 to 6.00
same,pIC50,[2],4.26 to 5.24
Oc1ccc(/C=C/c2cc(O)cc(O)c2)cc1 [RESVERATROL],pIC50,[21],4.22
O=C1c2cccc3cccc(c23)C(=O)N1CCNCCCCNCCN1C(=O)c2cccc3cccc(c23)C1=O,pIC50,[1],5.00 to 6.00
same,pIC50,[2],4.26 to 5.24
O=C1c2cccc3cccc(c23)C(=O)N1CCNCCCCCCCNCCN1C(=O)c2cccc3cccc(c23)C1=O,pIC50,[1],5.00 to 6.00
same,pIC50,[2],4.26 to 5.24
